Assay results as given in patent publication US20230210853A1 (Halia Therapeutics, Inc., priority 2020, published 2023).

Target: T1, full-length recombinant human NEK7 (Homo sapiens, UniProt Q8TDX7)
T1 construct: full-length recombinant human NEK7; GST (N); purchased SignalChem N09-10G; host or cells: Sf9 insect cells (baculovirus)
Test: NEK7 enzymatic assay ([33P]-ATP, casein substrate)
Assay type: biochemical
Details: recombinant human NEK7, casein substrate
Procedure, shortened: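 GST-tagged enzyme, baculovirus-expressed in Sf9 cells, was mixed with casein in 20 mM Hepes pH 7.5, 10 mM MgCl2, 1 mM EGTA, 0.02% Brij35, 2 mM DTT, 1% DMSO. Compounds (3-fold series, 10 μM–0.5 nM) were preincubated 20 min at RT, then [33P]-ATP was added for 2 h at RT. P81 filter-bound radioactivity was expressed as % of vehicle activity and fitted to IC50.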

T1 sequence (Q8TDX7 whole entry): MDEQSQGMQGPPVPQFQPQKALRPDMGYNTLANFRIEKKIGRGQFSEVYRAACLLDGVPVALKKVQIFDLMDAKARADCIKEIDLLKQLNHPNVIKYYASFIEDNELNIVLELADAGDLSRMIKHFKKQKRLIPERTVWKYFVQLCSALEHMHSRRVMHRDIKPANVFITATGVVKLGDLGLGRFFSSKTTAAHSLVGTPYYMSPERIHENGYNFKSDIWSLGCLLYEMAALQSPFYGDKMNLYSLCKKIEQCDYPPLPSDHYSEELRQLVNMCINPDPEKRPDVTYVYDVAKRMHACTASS

| Structure (SMILES) | IC50 (Table 2d) | IC50 (Table 2e) |
| --- | --- | --- |
| CN1CCC(Oc2ncc(NC(=O)Nc3ccc(-c4cn(C5CC5)c5ncnc(N)c45)cc3F)cc2C(F)(F)F)CC1 [Id-60] | > 1.5 µM |  |
| Nc1ncnc2c1c(-c1ccc(NC(=O)Nc3ccc(CN4CCN(C5CC5)CC4)c(C(F)(F)F)c3)c(F)c1)cn2C1CC1 [Id-61] | 0.301 to 0.5 µM |  |
| CC(C)N1CCN(Cc2ccc(NC(=O)Nc3ccc(-c4cn(C5CC5)c5ncnc(N)c45)cc3F)cc2C(F)(F)F)CC1 [Id-62] | < 0.15 µM |  |
| CN1CC2CC1CN2Cc1ccc(NC(=O)Nc2ccc(-c3cn(C4CC4)c4ncnc(N)c34)cc2F)cc1C(F)(F)F (centres unmarked) [Id-63] | < 0.15 µM |  |
| CN1CCN(Cc2ccc(NC(=O)Nc3ccc(-c4cn(C5CC5)c5ncnc(N)c45)cc3F)c(F)c2)CC1 [Id-64] | 0.501 to 1.5 µM |  |
| Nc1ncnc2c1c(-c1ccc(NC(=O)Nc3ccc(CN4CCNCC45CC5)c(C(F)(F)F)c3)c(F)c1)cn2C1CC1 [Id-65, 1-(4-((4,7-diazaspiro[2,5]octan-4-yl)methyl)-3-(trifluoromethyl)phenyl)-3-(4-(4-amino-7-cyclopropyl-7H-pyrrolo[2,3-d]pyrimidin-5-yl)-2-fluorophenyl)urea] | < 0.15 µM |  |
| CN1CCN(Cc2ccc(NC(=O)Nc3ncc(-c4cn(C5CC5)c5ncnc(N)c45)cc3F)cc2C(F)(F)F)CC1 [Id-66] | < 0.15 µM |  |
| CN1CCN(Cc2ncc(NC(=O)Nc3ccc(-c4cn(C5CC5)c5ncnc(N)c45)cc3F)cc2C(F)(F)F)CC1 [Id-67] | < 0.15 µM |  |
| CN(C)C1CCN(Cc2ccc(NC(=O)Nc3ccc(-c4cn(C5CC5)c5ncnc(N)c45)cc3F)cc2C(F)(F)F)CC1 [Id-68] | < 0.15 µM |  |
| CC1CN(C)CCN1Cc1ccc(NC(=O)Nc2ccc(-c3cn(C4CC4)c4ncnc(N)c34)cc2F)cc1C(F)(F)F (centres unmarked) [Id-69] | 0.151 to 0.3 µM |  |
| CN1CCN(Cc2ccc(NC(=O)Nc3ccc(-c4cn(CCO)c5ncnc(N)c45)cc3F)cc2C(F)(F)F)CC1 [Id-70] | < 0.15 µM |  |
| Nc1ncnc2c1c(-c1ccc(NC(=O)Nc3ccc(CN4CCN(CCO)CC4)c(C(F)F)c3)c(F)c1)cn2C1CC1 [Id-71] | < 0.15 µM |  |
| O=C(Nc1ccc(CN2CCOCC2)c(F)c1)Nc1ccc(Oc2ccnc3[nH]cc(Cl)c23)cc1F [Ie-2, 1-(4-((3-chloro-1H-pyrrolo[2,3-b]pyridin-4-yl)oxy)-2-fluorophenyl)-3-(3-fluoro-4-(morpholinomethyl)phenyl)urea] |  | > 1.5 µM |
| Cc1cn(-c2cc(NC(=O)Nc3ccc(Oc4ccnc5[nH]cc(Cl)c45)cc3F)cc(C(F)(F)F)c2)cn1 [Ie-3, 1-(4-((3-Chloro-1H-pyrrolo[2,3-b]pyridin-4-yl)oxy)-2-fluorophenyl)-3-(3-(4-methyl-1H-1-imidazol-1-yl)-5-(TRIFLUOROMETHYL)phenyl)urea] |  | 0.501 to 1.5 µM |
| O=C(Nc1ccc(CN2CCOCC2)c(C(F)(F)F)c1)Nc1ccc(Oc2ccnc3[nH]cc(Cl)c23)cc1F [Ie-4, 1-(4-((3-Chloro-1H-pyrrolo[2,3-b]pyridin-4-yl)oxy)-2-fluorophenyl)-3-(4-(morpholinomethyl)-3-(trifluoromethyl)phenyl)UR EA] |  | > 1.5 µM |
| CN1CCN(Cc2ccc(NC(=O)Nc3ccc(Oc4ccnc5[nH]cc(Cl)c45)cc3F)cc2F)CC1 [Ie-5, 1-(4-((3-chloro-1H-pyrrolo[2,3-b]pyridin-4-yl)oxy)-2-fluorophenyl)-3-(3-fluoro-4-((4-methylpiperazin-1-yl)methyl)phenyl)urea] |  | > 1.5 µM |
| CN1CCN(c2cc(NC(=O)Nc3ccc(Oc4ccnc5[nH]cc(Cl)c45)cc3F)cc(C(F)(F)F)c2)CC1 [Ie-6, 1-(4-((3-chloro-1H-pyrrolo[2,3-b]pyridin-4-yl)oxy)-2-fluorophenyl)-3-(3-(4-methylpiperazin-1-yl)-5-(trifluoromethyl)phenyl)urea] |  | > 1.5 µM |
| CN(C)Cc1ccc(NC(=O)Nc2ccc(Oc3ccnc4[nH]cc(Cl)c34)cc2F)cc1C(F)(F)F [Ie-7, 1-(4-((3-chloro-1H-pyrrolo[2,3-b]pyridin-4-yl)oxy)-2-fluorophenyl)-3-(4-((dimethylamino)methyl)-3-(trifluoromethyl)phenyl)urea] |  | > 1.5 µM |
| CN(C)C1CN(Cc2ccc(NC(=O)Nc3ccc(Oc4ccnc5[nH]cc(Cl)c45)cc3F)cc2C(F)(F)F)C1 [Ie-8, 1-(4-((3-chloro-1H-pyrrolo[2,3-b]pyridin-4-yl)oxy)-2-fluorophenyl)-3-(4-((3-(dimethylamino)azetidin-1-yl)methyl)-3-(trifluoromethyl)phenyl)urea] |  | > 1.5 µM |
| CC(C)N1CCN(Cc2ccc(NC(=O)Nc3ccc(Oc4ccnc5[nH]cc(Cl)c45)cc3F)cc2C(F)(F)F)CC1 [Ie-10, 1-(4-((3-chloro-1H-pyrrolo[2,3-b]pyridin-4-yl)oxy)-2-fluorophenyl)-3-(4-((4-isopropylpiperazin-1-yl)methyl)-3-(trifluoromethyl)phenyl)urea] |  | 0.301 to 0.5 µM |
| O=C(Nc1ccc(CN2CCN(C3CC3)CC2)c(C(F)(F)F)c1)Nc1ccc(Oc2ccnc3[nH]cc(Cl)c23)cc1F [Ie-11, 1-(4-((3-chloro-1H-pyrrolo[2,3-b]pyridin-4-yl)oxy)-2-fluorophenyl)-3-(4-((4-cyclopropylpiperazin-1-yl)methyl)-3-(trifluoromethyl)phenyl)urea] |  | > 1.5 µM |

Continued, values first:

| IC50 (Table 2d) | IC50 (Table 2e) | Structure (SMILES) |
| --- | --- | --- |
|  | > 1.5 µM | CN1CCN(Cc2ccc(NC(=O)Nc3ccc(Oc4ccnc5[nH]cc(Cl)c45)cc3F)cc2Cl)CC1 [Ie-12, 1-(4-((3-chloro-1H-pyrrolo[2,3-b]pyridin-4-yl)oxy)-2-fluorophenyl)-3-(3-chloro-4-((4-methylpiperazin-1-yl)methyl)phenyl)urea] |
|  | 0.501 to 1.5 µM | CC(c1ccc(NC(=O)Nc2ccc(Oc3ccnc4[nH]cc(Cl)c34)cc2F)cc1C(F)(F)F)N1CCN(C)CC1 (centres unmarked) [Ie-13, 1-(4-((3-chloro-1H-pyrrolo[2,3-b]pyridin-4-yl)oxy)-2-fluorophenyl)-3-(4-(1-(4-methylpiperazin-1-yl)ethyl)-3-(trifluoromethyl)phenyl)urea] |
|  | > 1.5 µM | CN1CCN(c2ccc(NC(=O)Nc3ccc(Oc4ccnc5[nH]cc(Cl)c45)cc3F)cc2C(F)(F)F)CC1 [Ie-14, 1-(4-((3-chloro-1H-pyrrolo[2,3-b]pyridin-4-yl)oxy)-2-fluorophenyl)-3-(4-(4-methylpiperazin-1-yl)-3-(trifluoromethyl)phenyl)urea] |
|  | > 1.5 µM | CN1CCN(C(=O)c2ccc(NC(=O)Nc3ccc(Oc4ccnc5[nH]cc(Cl)c45)cc3F)cc2C(F)(F)F)CC1 [Ie-15, 1-(4-((3-chloro-1H-pyrrolo[2,3-b]pyridin-4-yl)oxy)-2-fluorophenyl)-3-(4-(4-methylpiperazine-1-carbonyl)-3-(trifluoromethyl)phenyl)urea] |
|  | > 1.5 µM | CN1CCCN(Cc2ccc(NC(=O)Nc3ccc(Oc4ccnc5[nH]cc(Cl)c45)cc3F)cc2C(F)(F)F)CC1 [Ie-17, 1-(4-((3-chloro-1H-pyrrolo[2,3-b]pyridin-4-yl)oxy)-2-fluorophenyl)-3-(4-((4-methyl-1,4-diazepan-1-yl)methyl)-3-(trifluoromethyl)phenyl)urea] |
|  | > 1.5 µM | CN1C[C@@H]2CN(Cc3ccc(NC(=O)Nc4ccc(Oc5ccnc6[nH]cc(Cl)c56)cc4F)cc3C(F)(F)F)C[C@@H]2C1 [Ie-18, 1-(4-((3-chloro-1H-pyrrolo[2,3-b]pyridin-4-yl)oxy)-2-fluorophenyl)-3-(4-(((3aR,6aS)-5-methylhexahydropyrrolo[3,4-c]pyrrol-2(1H)-yl)methyl)-3-(trifluoromethyl)phenyl)urea] |
|  | 0.501 to 1.5 µM | CN1CCC(Cc2ccc(NC(=O)Nc3ccc(Oc4ccnc5[nH]cc(Cl)c45)cc3F)cc2C(F)(F)F)CC1 [Ie-19, 1-(4-((3-chloro-1H-pyrrolo[2,3-H]pyridin-4-yl)oxy)-2-fluorophenyl)-3-(4-((1-methylpiperidin-4-yl)methyl)-3-(trifluoromethyl)phenyl)urea] |
|  | > 1.5 µM | CN(C)C1CCN(Cc2ccc(NC(=O)Nc3ccc(Oc4ccnc5[nH]cc(Cl)c45)cc3F)cc2C(F)(F)F)C1 (centres unmarked) [Ie-21, 1-(4-((3-chloro-1H-pyrrolo[2,3-b]pyridin-4-yl)oxy)-2-fluorophenyl)-3-(4-((3-(dimethylamino)pyrrolidin-1-yl)methyl)-3-(trifluoromethyl)phenyl)urea] |
|  | 0.501 to 1.5 µM | CN1CCN(Cc2ccc(NC(=O)Nc3ccc(Oc4ccnc5[nH]cc(Cl)c45)cc3F)cc2C(F)F)CC1 [Ie-22, 1-(4-((3-chloro-1H-pyrrolo[2,3-b]pyridin-4-yl)oxy)-2-fluorophenyl)-3-(3-(difluoromethyl)-4-((4-methylpiperazin-1-yl)methyl)phenyl)urea] |
|  | 0.501 to 1.5 µM | CCN1CCN(Cc2ccc(NC(=O)Nc3ccc(Oc4ccnc5[nH]cc(Cl)c45)cc3F)cc2C(F)F)CC1 [Ie-23, 1-(4-((3-chloro-1-pyrrolo[2,3-b]pyridin-4-yl)oxy)-2-fluorophenyl)-3-(3-(difluoromethyl)-4-((4-ethylpiperazin-1-yl)methyl)phenyl)urea] |
|  | 0.301 to 0.5 µM | Cc1cn(-c2ccc(NC(=O)Nc3ccc(Oc4ccnc5[nH]cc(Cl)c45)cc3F)cc2C(F)(F)F)cn1 [Ie-24, 1-(4-((3-chloro-1H-pyrrolo[2,3-b]pyridin-4-yl)oxy)-2-fluorophenyl)-3-(4-(4-methyl-1H-imidazol-1-yl)-3-(trifluoromethyl)phenyl)urea] |
|  | 0.301 to 0.5 µM | CN1CCN(Cc2ccc(NC(=O)Nc3ccc(Oc4ccnc5[nH]c(Cl)c(Cl)c45)cc3F)cc2C(F)(F)F)CC1 [Ie-25, 1-(4-((2,3-dichloro-1H-pyrrolo[2,3-b]pyridin-4-yl)oxy)-2-fluorophenyl)-3-(4-((4-methylpiperazin-1-yl)methyl)-3-(trifluoromethyl)phenyl)urea] |
|  | > 1.5 µM | Cc1cc(Oc2ccnc3[nH]cc(Cl)c23)ccc1NC(=O)Nc1ccc(CN2CCN(C)CC2)c(C(F)(F)F)c1 [Ie-29] |
|  | > 1.5 µM | Cc1cc(Oc2ccnc3[nH]c(Cl)c(Cl)c23)ccc1NC(=O)Nc1ccc(CN2CCN(C)CC2)c(C(F)(F)F)c1 [Ie-30, 1-(4-((2,3-dichloro-1H-pyrrolo[2,3-b]pyridin-4-yl)oxy)-2-methylphenyl)-3-(4-((4-methylpiperazin-1-yl)methyl)-3-(trifluoromethyl)phenyl)urea] |
